Among the data in ChEMBL document CHEMBL1152560, “Substituted 2-arylbenzothiazoles as kinase inhibitors: hit-to-lead optimization” (Bioorg Med Chem, 2009) are residual activity values, retold here.

Experiment [1] concerns the target Serine/threonine-protein kinase SIK2 (Homo sapiens) (UniProt Q9H0K1). The experiment is described as follows: Residual activity of SNF1LK2 at 1 uM by microplate scintillation counting.
For experiment [2], the target named is T1, Serine/threonine-protein kinase Nek3 (Homo sapiens) (UniProt P51956).
T1 sequence (whole entry): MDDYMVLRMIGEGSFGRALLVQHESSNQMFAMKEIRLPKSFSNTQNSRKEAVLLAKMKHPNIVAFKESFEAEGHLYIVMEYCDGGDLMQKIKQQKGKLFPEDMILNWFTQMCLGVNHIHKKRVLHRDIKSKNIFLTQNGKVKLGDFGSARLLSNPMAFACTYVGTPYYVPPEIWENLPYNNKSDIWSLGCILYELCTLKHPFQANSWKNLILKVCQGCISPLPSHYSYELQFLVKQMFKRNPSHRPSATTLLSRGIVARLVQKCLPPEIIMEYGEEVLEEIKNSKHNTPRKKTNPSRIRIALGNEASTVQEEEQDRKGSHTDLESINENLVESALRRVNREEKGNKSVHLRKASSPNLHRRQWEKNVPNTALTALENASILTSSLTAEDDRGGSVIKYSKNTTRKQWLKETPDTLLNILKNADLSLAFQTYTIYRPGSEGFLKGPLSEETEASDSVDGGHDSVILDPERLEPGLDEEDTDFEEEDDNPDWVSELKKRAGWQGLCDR
The experiment is described as follows: Residual activity of NEK3 at 10 uM by microplate scintillation counting.

The target of experiment [3] is RAC-beta serine/threonine-protein kinase (Homo sapiens) (UniProt P31751). The experiment is described as follows: Residual activity of AKT2 at 10 uM by microplate scintillation counting.
Experiment [4] concerns the target Epidermal growth factor receptor (Homo sapiens, UniProt P00533). The experiment is described as follows: Residual activity of wild type EGF-R at 0.1 uM by microplate scintillation counting.
Experiment [5] has as its target Rho-associated protein kinase 2 (Homo sapiens) (UniProt O75116). The experiment is described as follows: Residual activity of ROCK2 at 10 uM by microplate scintillation counting.
The target of experiment [6] is Tyrosine-protein kinase Lyn (Homo sapiens) (UniProt P07948). The experiment is described as follows: Residual activity of LYN at 1 uM by microplate scintillation counting.
Experiment [7] deals with T2, Receptor-type tyrosine-protein kinase FLT3 (Homo sapiens), P36888 [D835Y].
T2 sequence (whole entry): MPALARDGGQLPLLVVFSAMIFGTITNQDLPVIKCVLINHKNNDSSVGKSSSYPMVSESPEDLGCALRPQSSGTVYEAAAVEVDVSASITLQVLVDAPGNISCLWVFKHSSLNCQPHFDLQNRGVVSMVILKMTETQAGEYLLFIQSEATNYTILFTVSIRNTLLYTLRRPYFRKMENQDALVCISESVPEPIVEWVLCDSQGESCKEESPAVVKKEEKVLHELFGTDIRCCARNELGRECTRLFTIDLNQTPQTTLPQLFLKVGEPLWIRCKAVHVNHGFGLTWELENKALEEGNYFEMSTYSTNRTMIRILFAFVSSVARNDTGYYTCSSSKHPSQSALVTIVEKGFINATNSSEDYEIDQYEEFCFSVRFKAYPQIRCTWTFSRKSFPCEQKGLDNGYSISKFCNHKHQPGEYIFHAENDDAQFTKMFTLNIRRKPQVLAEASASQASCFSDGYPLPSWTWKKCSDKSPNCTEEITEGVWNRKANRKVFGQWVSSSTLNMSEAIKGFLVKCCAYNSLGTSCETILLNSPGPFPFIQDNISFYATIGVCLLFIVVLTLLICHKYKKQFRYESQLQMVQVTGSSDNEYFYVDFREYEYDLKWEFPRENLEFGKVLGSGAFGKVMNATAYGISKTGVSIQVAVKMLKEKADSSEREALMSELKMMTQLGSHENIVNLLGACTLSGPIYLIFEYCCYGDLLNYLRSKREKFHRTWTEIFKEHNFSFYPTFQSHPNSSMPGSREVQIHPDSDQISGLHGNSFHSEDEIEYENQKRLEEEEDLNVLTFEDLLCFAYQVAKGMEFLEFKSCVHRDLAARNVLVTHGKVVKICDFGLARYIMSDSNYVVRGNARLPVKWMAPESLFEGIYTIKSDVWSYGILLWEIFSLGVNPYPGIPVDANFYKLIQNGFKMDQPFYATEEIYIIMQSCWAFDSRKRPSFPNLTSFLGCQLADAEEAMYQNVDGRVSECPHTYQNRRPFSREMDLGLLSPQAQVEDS
The experiment is described as follows: Residual activity of FLT3 D835Y mutant at 10 uM by microplate scintillation counting.

The target in experiment [8] is Tyrosine-protein kinase Fes/Fps (Homo sapiens) (UniProt P07332). The experiment is described as follows: Residual activity of FES at 10 uM by microplate scintillation counting.
Chain of Tyrosine-protein kinase Fes/Fps (Homo sapiens) (P07332 whole entry): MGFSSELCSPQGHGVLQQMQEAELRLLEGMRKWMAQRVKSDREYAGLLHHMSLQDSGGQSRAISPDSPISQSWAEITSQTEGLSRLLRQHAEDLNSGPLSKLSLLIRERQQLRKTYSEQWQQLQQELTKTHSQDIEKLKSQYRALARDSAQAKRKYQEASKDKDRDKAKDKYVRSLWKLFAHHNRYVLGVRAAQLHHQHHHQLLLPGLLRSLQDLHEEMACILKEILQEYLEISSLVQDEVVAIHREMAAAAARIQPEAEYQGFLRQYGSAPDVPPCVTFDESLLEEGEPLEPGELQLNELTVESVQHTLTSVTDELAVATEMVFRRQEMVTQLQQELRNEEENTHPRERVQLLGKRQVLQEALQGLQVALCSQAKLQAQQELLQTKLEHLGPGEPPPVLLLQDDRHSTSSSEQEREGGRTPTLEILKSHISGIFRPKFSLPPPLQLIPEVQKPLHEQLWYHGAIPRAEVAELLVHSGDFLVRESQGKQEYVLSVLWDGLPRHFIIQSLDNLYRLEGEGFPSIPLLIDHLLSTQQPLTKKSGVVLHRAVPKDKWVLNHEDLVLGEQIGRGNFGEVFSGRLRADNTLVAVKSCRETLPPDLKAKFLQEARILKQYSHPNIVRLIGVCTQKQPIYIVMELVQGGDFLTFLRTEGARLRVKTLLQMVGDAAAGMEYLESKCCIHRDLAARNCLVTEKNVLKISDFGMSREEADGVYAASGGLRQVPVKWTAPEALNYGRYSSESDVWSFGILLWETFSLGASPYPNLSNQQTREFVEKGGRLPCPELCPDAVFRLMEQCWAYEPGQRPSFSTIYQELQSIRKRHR
In experiment [9] the target is Tyrosine-protein kinase receptor UFO (Homo sapiens) (UniProt P30530). The experiment can be described thus: Residual activity of AXL at 0.1 uM by microplate scintillation counting.
Chain of Tyrosine-protein kinase receptor UFO (Homo sapiens) (P30530 whole entry): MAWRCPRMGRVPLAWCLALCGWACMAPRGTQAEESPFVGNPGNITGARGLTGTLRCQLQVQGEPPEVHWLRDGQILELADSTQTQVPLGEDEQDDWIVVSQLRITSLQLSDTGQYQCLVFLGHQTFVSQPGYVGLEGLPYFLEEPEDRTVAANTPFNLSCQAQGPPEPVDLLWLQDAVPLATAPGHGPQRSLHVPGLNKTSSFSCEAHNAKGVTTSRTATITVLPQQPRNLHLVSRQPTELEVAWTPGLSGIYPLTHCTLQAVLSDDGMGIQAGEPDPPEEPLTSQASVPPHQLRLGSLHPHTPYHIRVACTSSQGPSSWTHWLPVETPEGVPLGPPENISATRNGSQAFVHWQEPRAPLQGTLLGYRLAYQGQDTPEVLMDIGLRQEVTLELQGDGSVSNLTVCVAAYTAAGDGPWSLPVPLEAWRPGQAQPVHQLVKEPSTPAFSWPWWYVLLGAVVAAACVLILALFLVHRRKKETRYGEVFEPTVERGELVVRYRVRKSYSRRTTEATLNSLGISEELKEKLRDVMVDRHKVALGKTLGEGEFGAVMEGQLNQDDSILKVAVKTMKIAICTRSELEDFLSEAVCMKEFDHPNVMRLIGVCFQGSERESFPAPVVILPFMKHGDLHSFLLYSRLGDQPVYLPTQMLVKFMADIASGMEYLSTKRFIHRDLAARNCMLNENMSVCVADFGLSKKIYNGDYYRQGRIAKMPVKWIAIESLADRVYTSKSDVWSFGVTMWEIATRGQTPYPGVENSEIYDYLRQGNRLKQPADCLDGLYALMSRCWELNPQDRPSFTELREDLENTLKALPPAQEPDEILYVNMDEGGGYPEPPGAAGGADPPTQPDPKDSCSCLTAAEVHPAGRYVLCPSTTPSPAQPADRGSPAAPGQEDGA
The target of experiment [10] is Mitogen-activated protein kinase 1 (Homo sapiens) (UniProt P28482). The experiment is described as follows: Residual activity of ERK2 at 10 uM by microplate scintillation counting.
Chain of Mitogen-activated protein kinase 1 (Homo sapiens) (P28482 whole entry): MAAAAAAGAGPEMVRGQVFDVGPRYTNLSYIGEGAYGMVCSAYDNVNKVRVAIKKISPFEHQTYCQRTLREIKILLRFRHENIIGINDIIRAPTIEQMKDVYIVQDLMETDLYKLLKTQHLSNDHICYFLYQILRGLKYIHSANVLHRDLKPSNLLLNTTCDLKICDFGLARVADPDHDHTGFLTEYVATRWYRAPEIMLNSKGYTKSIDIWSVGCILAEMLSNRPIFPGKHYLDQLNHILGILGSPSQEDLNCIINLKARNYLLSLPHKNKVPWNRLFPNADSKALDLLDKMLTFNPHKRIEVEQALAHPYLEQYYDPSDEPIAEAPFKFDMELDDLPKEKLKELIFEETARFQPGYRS
The subject of experiment [11] is Epidermal growth factor receptor (Homo sapiens), P00533 [L858R]. The experiment can be described thus: Residual activity of EGFR L858R mutant at 1 uM by microplate scintillation counting.
Experiment [12] concerns Epidermal growth factor receptor (Homo sapiens), P00533 [L858R,T790M]. The experiment is described as follows: Residual activity of EGFR T790M/L858R mutant at 0.1 uM by microplate scintillation counting.
In experiment [13] the target is LIM domain kinase 1 (Homo sapiens) (UniProt P53667). The experiment is described as follows: Residual activity of LIMK1 at 10 uM by microplate scintillation counting.
Chain of LIM domain kinase 1 (Homo sapiens) (P53667 whole entry, looked up, the tested form may be a part): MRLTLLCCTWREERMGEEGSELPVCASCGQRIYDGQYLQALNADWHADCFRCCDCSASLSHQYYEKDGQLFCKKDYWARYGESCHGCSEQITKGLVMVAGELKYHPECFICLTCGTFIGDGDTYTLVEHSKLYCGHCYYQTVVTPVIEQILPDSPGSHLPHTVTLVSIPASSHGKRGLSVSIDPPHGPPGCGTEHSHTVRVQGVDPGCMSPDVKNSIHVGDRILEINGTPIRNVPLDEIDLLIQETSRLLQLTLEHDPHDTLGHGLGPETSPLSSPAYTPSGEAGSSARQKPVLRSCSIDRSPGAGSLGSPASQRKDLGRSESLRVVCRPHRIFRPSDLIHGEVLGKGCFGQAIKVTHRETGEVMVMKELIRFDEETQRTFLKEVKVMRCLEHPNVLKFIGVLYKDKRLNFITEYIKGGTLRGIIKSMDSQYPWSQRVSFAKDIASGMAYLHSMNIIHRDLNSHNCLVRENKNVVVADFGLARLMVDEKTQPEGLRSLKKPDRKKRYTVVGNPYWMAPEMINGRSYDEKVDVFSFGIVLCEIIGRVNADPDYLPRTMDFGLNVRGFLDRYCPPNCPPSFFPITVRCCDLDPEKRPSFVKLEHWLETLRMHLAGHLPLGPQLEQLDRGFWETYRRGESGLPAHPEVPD
The target in experiment [14] is Mitogen-activated protein kinase 11 (Homo sapiens) (UniProt Q15759). The experiment is described as follows: Residual activity of p38beta at 1 uM by microplate scintillation counting.
Chain of Mitogen-activated protein kinase 11 (Homo sapiens) (Q15759 whole entry, canonical isoform): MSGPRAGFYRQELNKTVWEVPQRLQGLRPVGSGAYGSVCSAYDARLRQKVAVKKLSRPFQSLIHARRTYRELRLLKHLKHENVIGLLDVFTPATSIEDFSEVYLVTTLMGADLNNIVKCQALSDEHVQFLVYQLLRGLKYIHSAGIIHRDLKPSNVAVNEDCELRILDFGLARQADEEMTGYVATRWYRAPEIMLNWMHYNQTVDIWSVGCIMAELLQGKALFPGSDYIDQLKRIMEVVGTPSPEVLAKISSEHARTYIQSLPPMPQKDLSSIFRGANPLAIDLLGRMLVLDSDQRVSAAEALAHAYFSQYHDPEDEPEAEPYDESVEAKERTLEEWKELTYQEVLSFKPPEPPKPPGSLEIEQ
Experiment [15] has as its target Casein kinase I isoform delta (Homo sapiens) (UniProt P48730). The experiment can be described thus: Residual activity of CK1delta at 0.1 uM by microplate scintillation counting.
In experiment [16] the target is Proto-oncogene tyrosine-protein kinase receptor Ret (Homo sapiens) (UniProt P07949). The experiment is described as follows: Residual activity of RET at 1 uM by microplate scintillation counting.

Chain of Casein kinase I isoform delta (Homo sapiens) (P48730 whole entry, looked up, canonical isoform): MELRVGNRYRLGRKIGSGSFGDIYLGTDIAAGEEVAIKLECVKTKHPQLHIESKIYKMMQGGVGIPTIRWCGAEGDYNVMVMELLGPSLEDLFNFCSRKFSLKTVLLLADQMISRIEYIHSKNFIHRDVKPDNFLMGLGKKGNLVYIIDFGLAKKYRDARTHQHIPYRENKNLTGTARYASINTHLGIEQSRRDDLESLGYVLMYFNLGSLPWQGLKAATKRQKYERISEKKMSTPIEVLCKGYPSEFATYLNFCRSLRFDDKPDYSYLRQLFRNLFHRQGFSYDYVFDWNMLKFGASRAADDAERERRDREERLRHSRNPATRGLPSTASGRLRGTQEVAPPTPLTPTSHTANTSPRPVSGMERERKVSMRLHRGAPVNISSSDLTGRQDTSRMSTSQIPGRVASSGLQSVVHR
Chain of Rho-associated protein kinase 2 (Homo sapiens) (O75116 whole entry, looked up): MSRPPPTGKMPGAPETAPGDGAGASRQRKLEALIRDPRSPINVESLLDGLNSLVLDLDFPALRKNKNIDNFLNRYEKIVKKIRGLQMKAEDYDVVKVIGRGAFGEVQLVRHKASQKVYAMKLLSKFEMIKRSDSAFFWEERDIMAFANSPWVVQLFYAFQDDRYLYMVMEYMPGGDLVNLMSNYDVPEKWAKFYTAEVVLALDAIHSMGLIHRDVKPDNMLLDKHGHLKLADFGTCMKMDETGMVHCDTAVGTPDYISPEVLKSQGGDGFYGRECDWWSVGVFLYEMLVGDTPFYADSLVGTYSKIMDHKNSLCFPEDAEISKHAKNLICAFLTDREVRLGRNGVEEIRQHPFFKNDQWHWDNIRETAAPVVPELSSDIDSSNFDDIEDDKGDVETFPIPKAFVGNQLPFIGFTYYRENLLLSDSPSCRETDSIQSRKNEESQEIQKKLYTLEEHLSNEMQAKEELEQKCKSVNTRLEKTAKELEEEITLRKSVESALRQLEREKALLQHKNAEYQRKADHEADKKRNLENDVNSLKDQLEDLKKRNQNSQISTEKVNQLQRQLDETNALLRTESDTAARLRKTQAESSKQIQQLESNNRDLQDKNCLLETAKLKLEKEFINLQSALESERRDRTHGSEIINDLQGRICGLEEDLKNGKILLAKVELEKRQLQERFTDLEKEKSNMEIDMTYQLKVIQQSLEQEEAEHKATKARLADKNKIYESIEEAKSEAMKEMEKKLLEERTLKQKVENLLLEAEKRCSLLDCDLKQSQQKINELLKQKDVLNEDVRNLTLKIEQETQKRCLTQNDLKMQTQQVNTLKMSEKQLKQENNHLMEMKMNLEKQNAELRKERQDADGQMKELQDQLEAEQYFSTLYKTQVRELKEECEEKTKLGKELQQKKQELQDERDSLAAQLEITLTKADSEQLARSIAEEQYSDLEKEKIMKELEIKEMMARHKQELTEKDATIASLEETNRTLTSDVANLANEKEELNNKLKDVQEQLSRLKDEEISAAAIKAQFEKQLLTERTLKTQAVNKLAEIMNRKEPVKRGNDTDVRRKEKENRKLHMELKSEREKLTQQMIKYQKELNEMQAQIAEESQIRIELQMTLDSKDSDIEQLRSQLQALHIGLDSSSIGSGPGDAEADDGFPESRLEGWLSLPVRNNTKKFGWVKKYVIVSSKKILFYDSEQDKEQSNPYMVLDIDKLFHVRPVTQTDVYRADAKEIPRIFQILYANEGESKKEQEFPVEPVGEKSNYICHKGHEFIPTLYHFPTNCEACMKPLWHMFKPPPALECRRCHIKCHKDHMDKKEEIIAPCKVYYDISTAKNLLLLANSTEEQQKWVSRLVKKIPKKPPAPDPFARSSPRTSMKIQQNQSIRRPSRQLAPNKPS

Consider `COc1cc2c(Oc3ccc(-c4nc5ccccc5s4)cc3F)ncnc2cc1OCCCN1CCN(C)CC1`, for which the residual activity stood at 85% in experiment [1]; 132% in experiment [2]; 167% in experiment [3]; 100% in experiment [4]; 47% in experiment [5]; 93% in experiment [6]. Besides, the residual activity in experiment [7] turned out to be 18%; in experiment [8], 112%; in experiment [9], 104%; in experiment [10], 163%; in experiment [11], 80%; in experiment [12], 101%. In addition, the residual activity was 95% in experiment [13], 129% in experiment [14], 98% in [15] and 58% in [16].
In the case of `COc1cc2c(Oc3ccc(-c4nc5ccccc5s4)cc3)ncnc2cc1OCCCN1CCN(C)CC1`, the residual activity came out at 88% in experiment [1]; 145% in experiment [2]; 175% in experiment [3]; 94% in experiment [4]; 54% in experiment [5]; 104% in experiment [6]. Moreover, the residual activity in experiment [7] was found to be 19%; in [8] it was 153%; in [9], 117%; in experiment [10], 161%; in experiment [11] it was 63%; in experiment [12] it was 100%. Further, the residual activity in experiment [13] was found to be 89%; in experiment [14], 126%; in experiment [15], 94%; in [16], 68%.
As to `COc1cc2c(Oc3ccc(-c4nc5ccccc5s4)cc3)ncnc2cc1OCCCN1CCCC1`, the residual activity in [1] came to 78%; in experiment [2], 154%; in experiment [3], 119%; in [4], 95%; in [5], 84%; in experiment [6] it was 119%. The residual activity in experiment [7] is 48%; in experiment [8], 208%; in [9] it was 96%; in experiment [10] it was 144%; in experiment [11], 72%; in experiment [12] it was 98%. The residual activity in experiment [13] worked out at 96%; in experiment [14] it was 125%; in experiment [15] it was 95%; in experiment [16], 81%.
